Reference: article PMC5686155, “Crystal structures of the mitochondrial deacylase Sirtuin 4 reveal isoform-specific acyl recognition and regulation features” (Nature Communications, 2017)

Experiments:
xSirt4 [1] = assay: MS-based assay of metabolite effects on xSirt4 activity; type: biochemical, Xenopus tropicalis; settings: n = 2 (Supplementary Fig. 3b)
Experimental: For MS and UV analyzes of deacylation reactions, samples were prepared as described for the coupled continuous assay, stopped by mixing 1:1 with 0.5% TFA after 0 and 60 min, diluted to 20 µM peptide using 0.1% FA, and analyzed by HPLC-separation using a Shimadzu Prominence UFLC (Shimadzu, Duisburg, Germany) coupled to ESI-MS and UV detection. Samples were washed on a Piccolo Proto 200 C4 5 μm 2.5 × 0.5 mm trap column (Higgins Analytical, Mountain View, California) and subsequently subjected to a Jupiter C4 5 μm 300 Å 150 × 1 mm analytical column (Phenomenex, Torrance, California) for reversed phase separation, with 99.9% H2O, 0.1% TFA as buffer A and 99.9% ACN, 0.1% TFA as buffer B. Peptides were eluted over a 20 min gradient from 1 to 55% buffer B, followed by 1 min from 55 to 90% buffer B with 70 µL min^−1 flow-rate. […] We detected in a mass range from 300 to 2500 m/z. […]
Supplementary Figure 3. […] (n=2; error bars: s.d.) e, Inner surfaces of the nucleotide binding sites of Sirt1-6, colored by electrostatic potential calculated with APBS2.1 in PyMOL using PDB IDs 4KXQ (Sirt1), 5D7O (Sirt2), 4BN4 (Sirt3), our xSirt4 structure, PDB IDs 3RIY (Sirt5) and 3K35 (Sirt6). […] The surfaces are colored according to electrostatic potential (red/-15 to blue/+15 kBT/e). f, xSirt4 surface colored by electrostatic potential calculated using APBS2.1 in PyMOL (red/-15 to blue/+15 kBT/e). […]

hSirt4 [2] = target: T1, hSirt4 (Homo sapiens, UniProt Q9Y6E7); assay: Coupled continuous enzymatic assay monitoring NAM release from NAD+ (Sirt4 deacylation); type: biochemical; settings: coupled enzymatic assay; for Sirt4 deacylation signal with CypA protein as substrate: increasing amounts of protein substrate, n = 2 (Fig. 1f); for effect on Sirt4 de-HMG-ylation activity: HMG-CPS1 peptide
T1 construct: hSirt4(25–314) in pQE30 coding for an N-terminal His6-tag; His6 (N); made in house; host or cells: Escherichia coli CodonPlus(DE3)
T1 sequence (Q9Y6E7 25-314): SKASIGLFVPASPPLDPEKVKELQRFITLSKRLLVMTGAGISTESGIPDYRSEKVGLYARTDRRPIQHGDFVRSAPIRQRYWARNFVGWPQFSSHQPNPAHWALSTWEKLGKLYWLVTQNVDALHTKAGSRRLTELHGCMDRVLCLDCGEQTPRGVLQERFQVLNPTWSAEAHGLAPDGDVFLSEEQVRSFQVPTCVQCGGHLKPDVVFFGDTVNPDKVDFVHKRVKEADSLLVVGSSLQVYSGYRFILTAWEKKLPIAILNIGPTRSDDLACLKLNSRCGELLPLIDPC
Experimental: The seven mammalian sirtuins vary in their sequence and acyl preferences[16],[19]. […] We therefore asked whether other acyl modifications would yield deacylation efficiencies expected for a physiologically dominant Sirt4 activity.
The coupled continuous assay was performed as reported. […] Reactions were monitored in microplates at room temperature for 1 h through absorption measurements at 340 nm in a LAMBDAScan plate reader (MWG Biotech, Ebersberg, Germany).

[3] = Non-enzymatic acylation of CPS1 peptide by acyl-CoA (titration); settings: HMG-CoA titrations
Cyclophilin A (CypA) = target: T2, Cyclophilin A (CypA) (Homo sapiens, UniProt P62937); assay: HMG-CoA modification of recombinant Cyclophilin A, intact protein MS; settings: CypA 0.4 mg/ml, 8 mM HMG-CoA, 100 mM Tris-HCl pH 8.3, 37 °C, 4 h
T2 construct: expression of a full-length CypA construct in pQE70 (Qiagen) in E. coli M15 cells; made in house; host or cells: E. coli M15
T2 sequence (P62937 whole entry): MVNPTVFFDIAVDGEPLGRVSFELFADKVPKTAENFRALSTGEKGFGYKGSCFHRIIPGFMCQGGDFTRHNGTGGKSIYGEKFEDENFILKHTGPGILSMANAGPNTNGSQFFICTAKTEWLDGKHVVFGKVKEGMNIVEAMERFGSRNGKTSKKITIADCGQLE
Experimental: The recombinant CypA was prepared through expression of a full-length CypA construct in pQE70 (Qiagen) in E. coli M15 cells and purification by ion exchange chromatography on Fractogel EMD DEAE-650(M), Fractogel TSK AF-Blue, and Fractogel SO3–650(M) (Merck Millipore)[29]. CypA protein (0.4 mg ml^−1) was modified using 8 mM HMG-CoA in 100 mM Tris-HCl buffer pH 8.3 at 37 °C for 4 h. Formation of HMG-ylated protein was confirmed by peptide-MS analyzes after tryptic digest, and by intact HMG-CypA mass analyzes through HPLC-coupled ESI-MS[56]. For intact mass determination, 25 µM HMG-CypA in 10 mM Tris/HCl pH 7.5, 50 mM NaCl was HPLC-separated with the setting described below for peptide MS, using a 30 min gradient from 1 to 55% buffer B (90% ACN, 9.9% H2O, 0.1% FA; buffer A: 5% ACN, 94.9% H2O, 0.1% FA) followed by 1 min of 55–90% buffer B with 70 µL min^−1 flow-rate. MS-analyzes were done with the settings described for peptide assays (below), except that the IntactProtein script was activated, which reduces CEM to 100. Acquired data were extracted with PeakView and deconvoluted in MassLynx in the range of 950–1500 m/z using the MaxEnt I algorithm to a resolution of 1 Da. Peak intensity values were recorded and overlaid using MassLynx.

hSirt4 [4] = target: T1, hSirt4; assay: HMG-FdL (Fluor-de-Lys-like) de-HMG-ylation assay; type: biochemical
Experimental: As a convenient and complementary, fluorescence-based alternative to the coupled enzymatic assay with HMG-peptides, we established substrate and assay corresponding to the popular “Fluor-de-Lys” (FdL) deacylation assays. […] We then employed the FdL-like Sirt4 assay for studying the effects of NAM and NADH, which are not compatible with the coupled assay. […] After 20 min, developer solution (2 mM NAM and 10 mg mL^−1 trypsin) in assay buffer was added 1:1 and samples were incubated for 45 min at room temperature. Fluorescence was measures using a FluoDia T70 with excitation wavelength 365 nm and emission wavelength 465 nm.

[5] = non-enzymatic; cited from earlier work
Description: Acetyl transferases employ acetyl-CoA for modifying proteins. However, acetyl-CoA can also non-enzymatically modify proteins, and some other acyl-CoA, such as succinyl-CoA, do so even more efficiently, likely causing the emerging variety of protein acylations[14],[28],[29],[31]. We thus analyzed whether HMG-CoA efficiently acylates peptides and proteins.

xSirt4 [6] = assay: Thermal denaturation shift assay; type: binding, Xenopus tropicalis; settings: 3 µM xSirt4, SYPRO orange, 20 to 73 °C; n = 2
Experimental: Thermal shift assays were performed in 96-well PCR plates using 3 µM xSirt4 (32–315) or 3 µM zSirt4 (29–310) and SYPRO orange (Thermo Fisher, Waltham, MA, USA) covered with 15 µL mineral oil. Heating and fluorescence measurements were performed in a FluoDia T70 with 1 K steps from 20 to 73 °C (excitation: 465 nm, emission: 580 nm). The data were analyzed in GraFit (Erithacus Software Ltd, Horley, UK) by nonlinear fitting using a two state model.

[7] = 10 and 100 μM compound, n = 2 (Fig. 4a)

O=C(O)CCCC[C@@H]1CCSS1 (racemic) [lipoic acid]
effect on Sirt4 de-HMG-ylation activity (xSirt4 [1]): inhibits
effect on Sirt4 deacetylation activity (xSirt4 [1]): inhibits

Unmodified CypA: recombinant Cyclophilin A, untreated
Sirt4 deacylation signal with CypA protein as substrate (hSirt4 [2]): did not yield a significant deacylation signal

CC(C)(CO[P@@](=O)(O)O[P@@](=O)(O)OC[C@H]1O[C@@H](n2cnc3c(N)ncnc32)[C@H](O)[C@@H]1OP(=O)(O)O)[C@@H](O)C(=O)NCCC(=O)NCCSC(=O)C[C@@](C)(O)CC(=O)O [HMG-CoA]
bimolecular rate constant of CPS1 peptide acylation [3]: (4.0 ± 0.8)×10^–10 μM^−1 s^−1
number of HMG-modifications on CypA (Cyclophilin A (CypA)): 1–7

O=C(Nc1ccccc1-c1cn2c(CN3CCNCC3)csc2n1)c1cnc2ccccc2n1 [SRT1720]
effect on Sirt4 de-HMG-ylation activity (hSirt4 [2]; 100 μM compound, high error, effect already in control reaction (assay incompatibility)): weak signal decrease
effect on Sirt4 activity in HMG-FdL assay (hSirt4 [4]; 1 µM hSirt4, 500 µM HMG-FdL substrate, 500 µM NAD+, n = 2 (Fig. 4c)): no effect on Sirt4 activity

Oc1ccc(/C=C/c2cc(O)cc(O)c2)cc1 [resveratrol]
effect on Sirt4 de-HMG-ylation activity (hSirt4 [2]; [7]): no significant effect

CC(=O)SCCNC(=O)CCNC(=O)[C@H](O)C(C)(C)COP(=O)(O)OP(=O)(O)OC[C@H]1O[C@@H](n2cnc3c(N)ncnc32)[C@H](O)[C@@H]1OP(=O)(O)O [acetyl-CoA]
bimolecular rate constant k of CPS1 peptide acylation [5]: (1.5 ± 0.4)×10^–10 μM^−1 s^−1

Cc1cc(=O)oc2cc(NC(=O)[C@H](CCCCNC(=O)CC(C)(O)CC(=O)O)NC(=O)OCc3ccccc3)ccc12 (stereo partly drawn) [HMG-FdL substrate, 5-(((S)−5-(((benzyloxy)carbonyl)amino)-6-((4-methyl-2-oxo-2H-chromen-7-yl)amino)-6-oxohexyl)amino)-3-hydroxy-3-methyl-5-oxopentanoic acid]
acceptance as Sirt4 substrate (hSirt4 [4]; FdL procedure, fluorescence): readily accepted by Sirt4

Nc1ncnc2c1ncn2[C@@H]1O[C@H](COP(=O)(O)OP(=O)(O)OC[C@H]2OC(O)[C@H](O)[C@@H]2O)[C@@H](O)[C@H]1O (some centres unmarked) [ADPr, ADP-ribose]
Sirt4 stabilization in thermal denaturation shift experiments (xSirt4 [6]): significant Sirt4 stabilization

NC(=O)c1cccnc1 [NAM, nicotinamide]
Sirt4 stabilization in thermal denaturation shift experiments (xSirt4 [6]): no pronounced effects

HMG-CypA: recombinant Cyclophilin A modified with HMG-CoA (1–7 HMG-modifications)
Sirt4 deacylation signal with CypA protein as substrate (hSirt4 [2]): strong, substrate concentration dependent signal

CC(NC(=O)c1ccccc1/N=C/c1c(O)ccc2ccccc12)c1ccccc1 (centres unmarked) [sirtinol]
effect on Sirt4 de-HMG-ylation activity (hSirt4 [2]; [7]): no significant effect
